The nature of this data set: Chiral plasma pharmacokinetics of MDMA and its phase I and II metabolites after controlled MDMA administration. The class given is in vivo, human. As to conditions: for reduction of Cmax by bupropion: metabolite stereoisomers, bupropion pretreatment vs placebo (abstract); for AUC(0-t) / Tmax / Cmax / half-life: both sexes, human, plasma, oral; for AUC(0-t): read-out: AUC0-24h R; for Tmax: read-out: tmax R; for Cmax: read-out: Cmax R; for half-life: read-out: t1/2 R (converted); for change in AUC24 after bupropion pretreatment / change in Cmax after bupropion pretreatment: bupropion+MDMA vs placebo+MDMA, unsigned = increase. The protocol: Blood plasma samples were analyzed non-stereoselectively as reported previously and reanalyzed for the present report using liquid chromatography-mass spectrometry/mass spectrometry after chiral derivatization with Marfey’s reagent as described previously. The method was fully validated, including selectivity, recovery, matrix effects, bias and imprecision, stability, and limit of quantification.

The mark [1] stands for this setting: bupropion vs placebo pretreatment.
Where [2] appears, read: 125 mg, placebo+MDMA (125 mg), CYP2D6 EM, n=13, plasma.
Where [3] appears, read: bupropion+MDMA (125 mg), CYP2D6 EM (EM/Bup), n=13, plasma.
Where [4] appears, read: placebo+MDMA (125 mg), CYP2D6 EM, n=13, plasma.
The mark [5] stands for this setting: placebo+MDMA (125 mg), CYP2D6 IM, n=3, plasma.
Setting [6] is: placebo-pretreated EMs, same-configuration MDMA enantiomer.
Where [7] appears, read: bupropion-pretreated CYP2D6 EMs.
The mark [8] stands for this setting: bupropion vs placebo pretreatment, CYP2D6 EMs.

Each structure is given as a SMILES string. Where a name gives a salt, the structure may show the parent alone. Read-outs that look alike come from different tables or passages of the source.

As usually defined, the Tmax is the time from dosing to the highest level. In general, Cmax refers to the highest concentration seen after dosing.

Turning to `CNC(C)Cc1ccc(O)c(OS(=O)(=O)O)c1` (centres unmarked) [DHMA 3-sulfate], the “reduction of Cmax by bupropion” value is “approximately 40%”.
The same measure, in the same setting: the entry for `CNC(C)Cc1ccc(OS(=O)(=O)O)c(O)c1` (centres unmarked) [DHMA 4-sulfate] is “approximately 40%”.
For `CNC(C)Cc1ccc(OC2OC(C(=O)O)C(O)C(O)C2O)c(OC)c1` (centres unmarked) [HMMA glucuronide], the “reduction of Cmax by bupropion” value is given as “approximately 40%”.
Regarding `CNC(C)Cc1ccc(OS(=O)(=O)O)c(OC)c1` (centres unmarked) [HMMA sulfate], the “reduction of Cmax by bupropion” value was “approximately 40%”. The “change of R/S ratio for Cmax after bupropion pretreatment” value under setting [1] is “+21%”.
With `CC(N)Cc1ccc2c(c1)OCO2` (centres unmarked) [MDA, 3,4-methylenedioxyamphetamine], under setting [1], the “change of R/S ratio for AUC24 after bupropion pretreatment” value is -17% and the “change of R/S ratio for Cmax after bupropion pretreatment” value is listed as -19%.
With `CN[C@H](C)Cc1ccc(O)c(OS(=O)(=O)O)c1` [R-DHMA 3-sulfate], the “metabolite/MDMA ratio, mean constant (after approximately 2 h)” value (shortened to “metabolite/MDMA ratio, mean constant”) (IMs) amounted to 0.10; the “metabolite/MDMA ratio, mean constant” value (bupropion-pretreated EMs) came out at 0.10; the “metabolite/MDMA ratio, mean constant” value (placebo-pretreated EMs) came out at 0.22. The “metabolite/MDMA ratio, mean initial (highest, first hour)” value (“metabolite/MDMA ratio, mean initial” for short) runs as follows: (IMs) 1.9; (bupropion-pretreated EMs) 0.4; under setting [6], 9.9. In addition, the AUC(0-t) reads like this: under setting [2], 2.4 µM·h; under setting [3], 0.96 µM·h. Also, the Tmax was 2.8 h under setting [2] and 3.8 h under setting [3]. Further, the Cmax worked out at 50 nM under setting [3] and 150 nM under setting [4]. In addition, the half-life under setting [3] is 2770 min and the half-life under setting [4] is 1210 min. Further, the “AUCtotal R” value under setting [3] is listed as 3.1 (2.1) μmol/l*h-1, the “AUCtotal R” value under setting [4] is recorded as 4.7 (2.5) μmol/l*h-1 and the “AUCtotal R” value under setting [5] is given as 2.6 (2.4) μmol/l*h-1. For the same compound, for the setting “CYP2D6 EMs”, the “change in AUC24 after bupropion pretreatment” value (“change in AUC24” for short) was -61%. For the same compound, the “change in Cmax after bupropion pretreatment” value (“change in Cmax” below) (CYP2D6 EMs) is reported as -68%.
In the case of `CN[C@H](C)Cc1ccc(OS(=O)(=O)O)c(O)c1` [R-DHMA 4-sulfate], under “IMs”, the “metabolite/MDMA ratio, mean constant” value stood at 0.05 and the “metabolite/MDMA ratio, mean initial” value came out at 0.94. For the same compound, under setting [2], the AUC(0-t) worked out at 1.3 µM·h and the Tmax came out at 2 h. In addition, under setting [3], the AUC(0-t) was found to be 0.71 µM·h, the Cmax was 37 nM, the half-life is 2990 min and the Tmax came out at 3.2 h. The “AUCtotal R” value under setting [3] is 2.9 (2.2) μmol/l*h-1. Moreover, under setting [4], the Cmax was determined as 80 nM, the half-life is 1050 min and the “AUCtotal R” value was 2.4 (1.7) μmol/l*h-1. Where the note is “CYP2D6 EMs”, the “change in AUC24” value is listed as -43% and the “change in Cmax” value was -54%. For the same compound, where the note is “bupropion-pretreated EMs”, the “metabolite/MDMA ratio, mean constant” value stood at 0.05 and the “metabolite/MDMA ratio, mean initial” value amounted to 0.89. Under setting [5], the “AUCtotal R” value is listed as 1.5 (1.0) μmol/l*h-1. Besides, the “metabolite/MDMA ratio, mean constant” value (placebo-pretreated EMs) was 0.13. Besides, the “metabolite/MDMA ratio, mean initial” value under setting [6] is on record as 4.9.
For the compound `CNC(C)Cc1ccc(OC2OC(C(=O)O)C(O)C(O)C2O)c(OC)c1` (centres unmarked) [R-HMMA glucuronide], the “metabolite/MDMA ratio, mean constant” value reads like this: (IMs) 0.05; (bupropion-pretreated EMs) 0.05; (placebo-pretreated EMs) 0.40. Further, the “metabolite/MDMA ratio, mean initial” value (IMs) is 0.05; the “metabolite/MDMA ratio, mean initial” value (bupropion-pretreated EMs) was 0.09; the “metabolite/MDMA ratio, mean initial” value under setting [6] was found to be 1.3. The AUC(0-t) was determined as 3.3 µM·h under setting [2] and 0.96 µM·h under setting [3]. In addition, the Tmax came out at 3.7 h under setting [2] and 7.6 h under setting [3]. Besides, the Cmax runs as follows: under setting [3], 49 nM; under setting [4], 210 nM. For the same compound, the half-life is 1900 min under setting [3] and 960 min under setting [4]. The “AUCtotal R” value is on record as 2.3 (1.5) μmol/l*h-1 under setting [3], 5.5 (4.3) μmol/l*h-1 under setting [4] and 2.0 (1.7) μmol/l*h-1 under setting [5]. In addition, the “change in AUC24” value (CYP2D6 EMs) is given as -71%. Further, the “change in Cmax” value (CYP2D6 EMs) is listed as -77%. Also, the “tonset (time of first detection), mean” value reads like this: under setting [7], 0.73 h; (placebo-pretreated CYP2D6 EMs) 0.41 h.
As to `CN[C@H](C)Cc1ccc(OS(=O)(=O)O)c(OC)c1` [R-HMMA sulfate], the “metabolite/MDMA ratio, mean constant” value (IMs) is 0.13; the “metabolite/MDMA ratio, mean constant” value (bupropion-pretreated EMs) is reported as 0.13; the “metabolite/MDMA ratio, mean constant” value (placebo-pretreated EMs) was 0.54. Further, the “metabolite/MDMA ratio, mean initial” value runs as follows: (IMs) 1.9; (bupropion-pretreated EMs) 0.31; under setting [6], 15.8. Also, the AUC(0-t) is 5.5 µM·h under setting [2] and 2.1 µM·h under setting [3]. The Tmax under setting [2] was 2 h and the Tmax under setting [3] came to 4.2 h. In addition, the Cmax amounted to 140 nM under setting [3] and 370 nM under setting [4]. Besides, the half-life under setting [3] is 2060 min and the half-life under setting [4] is 1050 min. In addition, the “AUCtotal R” value under setting [3] was 7.1 (4.6) μmol/l*h-1, the “AUCtotal R” value under setting [4] was 9.6 (2.7) μmol/l*h-1 and the “AUCtotal R” value under setting [5] is listed as 3.4 (1.3) μmol/l*h-1. Also, under “CYP2D6 EMs”, the “change in AUC24” value is on record as -62%. Besides, the “change in Cmax” value (CYP2D6 EMs) was -62%. The “tonset (time of first detection), mean” value by setting is: under setting [7], 0.53 h; (placebo-pretreated CYP2D6 EMs) 0.33 h.
As for `CC(N)Cc1ccc2c(c1)OCO2` (centres unmarked) [R-MDA, 3,4-methylenedioxyamphetamine], under setting [2], the AUC(0-t) is 0.26 µM·h and the Tmax came out at 12.5 h. In addition, under setting [3], the AUC(0-t) came out at 0.19 µM·h, the Cmax was 10 nM and the Tmax turned out to be 14.9 h. In addition, under setting [4], the Cmax was 14 nM. Also, for the setting “CYP2D6 EMs”, the “change in AUC24” value is -26% and the “change in Cmax” value is reported as -27%.
Turning to `CN[C@H](C)Cc1ccc2c(c1)OCO2` [R-MDMA, 3,4-methylenedioxymethamphetamine], under setting [2], the AUC(0-t) worked out at 8.7 µM·h and the Tmax came to 2.9 h. Also, under setting [3], the AUC(0-t) came to 10.9 µM·h, the Cmax came out at 750 nM, the half-life is 648 min and the Tmax amounted to 3.3 h. Also, under setting [3], the “AUCtotal R” value is recorded as 14.2 (3.7) μmol/l*h-1 and the “CL/F R” value was 31.3 (8.2) l/h. Further, under setting [4], the Cmax came out at 690 nM, the half-life is 492 min, the “AUCtotal R” value is on record as 10.4 (3.6) μmol/l*h-1 and the “CL/F R” value is 40.4 (14.2) l/h. Also, under setting [8], the “prolongation of t1/2 after bupropion pretreatment” value came to 31% and the “reduction of Cl/F after bupropion pretreatment” value is listed as -23%. Moreover, where the note is “CYP2D6 EMs”, the “change in AUC24” value is on record as 25% and the “change in Cmax” value is on record as 9%. Moreover, under setting [5], the “AUCtotal R” value is 14.5 (4.3) μmol/l*h-1 and the “CL/F R” value is reported as 29.8 (7.4) l/h.
